Our source for the IC50 values is patent publication US9187415B2, “Sulfonamides as HIV protease inhibitors” (Merck Canada Inc., priority 2010, dated 2015).

The experiment addresses T1, HIV-1 protease (wild type) (Human immunodeficiency virus type 1 group M subtype B, UniProt P04585).
T1 construct: made in house; host or cells: Escherichia coli
As to the kind of experiment: Protease Inhibition Assay (Pepcleave), inhibition of microbial expressed HIV protease. The experiment is classed as biochemical. The following applies: wild-type HIV-1 protease; mean of at least two independent experiments; read-out: Pepcleave Enzyme inhibition IC50. As for the experimental part: Assay for Inhibition of Microbial Expressed HIV Protease
Inhibition studies of the reaction of the protease (which was expressed in Eschericia coli) with a peptide substrate [Val-Ser-Gln-Asn-(betanaphtyl)Ala-Pro-Ile-Val]. The inhibitor is first preincubated with the HIV-1 protease (wild type) enzyme in assay buffer (50 mM sodium acetate, pH 5.5, 100 mM NaCl, and 0.1% BSA) for 30 minutes at room temperature. Substrate is added to 400 micromolar in a total volume of 80 microliters containing 10 picomolar HIV-1 protease and the reaction is incubated for 1 hour at 30° C. The reaction is quenched with the addition of 120 microliters of 10% phosphoric acid. The product formation is determined after separation of product and substrate on a Zorbax Eclipse XDB-C18 column connected to an Agilent 1100 high performance liquid chromatography system with fluorescence detection (excitation 270 nanometer and emission 330 nanometer). Alternatively, the inhibitor is preincubated with enzyme and substrate as described above, but in a total volume of 20 microliters containing 20 picomolar HIV-1 protease and the reaction is incubated for 1 hour at 30° C. The reaction is quenched with the addition of 30 microliters of 1 micromolar indinavir (indinavir is also used as an internal standard), and the product formation is determined after separation of product and substrate on a Zorbax Eclipse XDB-C18 column connected to an API 4000 mass spectrometer (Applied Biosystems) with multiple reaction monitoring (transitions were 644.5/428.9 and 615.4/422.2 (M1/M3) for product and indinavir respectively). The extent of inhibition of the reaction is determined from the peak area of the products. HPLC of the products, independently synthesized, provided quantitation standards and confirmation of the product composition.
Protease Inhibition Assay (“Pepcleave”) data were collected based on the wild-type HIV-1 protease enzyme. The assay monitors the cleavage of a 8-mer peptide (VSQN[β-Nal]PIV) where the tyrosine at P1 position is replaced by β-Naphthyl-alanine. Upon cleavage of the peptide by HIV-1 protease, the product is separated from substrate by HPLC column and detected at Ex.=270 nm/Em=330 nm.
The term IC50 denotes the point on the concentration scale where inhibition reaches its midpoint. Turning to `COC(=O)N[C@H](C(=O)Nc1cccc(C[C@@H](CO)N(C(C)C)S(=O)(=O)c2ccc(CO)cc2)c1)C(c1ccccc1)c1ccccc1` [Example 35, N-(3-{(2S)-3-hydroxy-2[{[4-(hydroxymethyl)phenyl]sulfonyl}(propan-2-yl)amino]propyl}phenyl)-Nα-(methoxycarbonyl)-β-phenyl-L-phenylalaninamide], the IC50 came out at 18.9 nM.
Turning to `[2H]C([2H])([2H])C([2H])(C([2H])([2H])[2H])C([2H])([2H])N([C@H](CO)C([2H])([2H])C([2H])([2H])c1ccccc1NC(=O)[C@@H](NC(=O)OC)C(c1ccccc1)c1ccccc1)S(=O)(=O)c1ccc2ncsc2c1` [Example 22, N-(2-{(3S)-3-[(1,3-benzothiazol-6-ylsulfonyl)(2-methylpropyl-d7)amino]-1-d2-2-d2-4-hydroxybutyl}phenyl)-Nα-(methoxycarbonyl)-β-phenyl-L-phenylalaninamide], the IC50 worked out at 1.7 nM.
The result for `COC(=O)N[C@@H](Cc1ccccc1Cl)C(=O)Nc1ccccc1CC[C@@H](CO)N(CCC(C)C)S(=O)(=O)c1ccc2ncsc2c1` [Example 16, N-(2-{(3S)-3-[(1,3-benzothiazol-6-ylsulfonyl)(3-methylbutyl)amino]-4-hydroxybutyl}phenyl)-2-chloro-Nα-(methoxycarbonyl)-L-phenylalaninamide] reads 8.1 nM; that for `COC(=O)N[C@H](C(=O)Nc1cccc(C[C@@H](CO)N(C(C)C)S(=O)(=O)c2ccc(N)cc2)c1)C(c1ccccc1)c1ccccc1` [Example 34, N-{3-[(2S)-2-{[(4-aminophenyl)sulfonyl](propan-2-yl)amino}-3-hydroxypropyl)phenyl}-Nα-(methoxycarbonyl)-β-phenyl-L-phenylalaninamide], 41.6 nM.
Then `COC(=O)N[C@H](C(=O)Nc1ccccc1CC[C@@H](CO)N(CC(C)C)S(=O)(=O)c1ccc2ncsc2c1)C(c1ccccc1)c1ccccc1` [Example 7, N-(2-{(3S)-3-[(1,3-benzothiazol-6-ylsulfonyl)(2-methylpropyl)amino]-4-hydroxybutyl}phenyl)-Nα-(methoxycarbonyl)-β-phenyl-L-phenylalaninamide], with 1.6 nM; and `COC(=O)N[C@@H](Cc1ccccc1Cl)C(=O)Nc1ccccc1CC[C@@H](CO)N(Cc1cn(C)nc1C)S(=O)(=O)c1ccc2ncsc2c1` [Example 17, N-{2-[(3S)-3-{(1,3-benzothiazol-6-ylsulfonyl)[(1,3-dimethyl-1H-pyrazol-4-yl)methyl]amino}-4-hydroxybutyl]phenyl}-2-chloro-Nα-(methoxycarbonyl)-L-phenylalaninamide], with 10 nM.
Turning to `[2H]C([2H])(c1ccccc1NC(=O)[C@@H](NC(=O)OC)C(c1ccccc1)c1ccccc1)C([2H])([2H])[C@@H](CO)N(CC(C)C)S(=O)(=O)c1ccc2ncsc2c1` [Example 21, N-(2-{(3S)-3-[(1,3-benzothiazol-6-ylsulfonyl)(2-methylpropyl)amino]-1-d2-2-d2-4-hydroxybutyl}phenyl)-Nα-(methoxycarbonyl)-β-phenyl-L-phenylalaninamide], the IC50 was 3.7 nM.
Turning to `[2H]C([2H])([2H])C([2H])([2H])N([C@H](CO)Cc1cccc(NC(=O)[C@@H](NC(=O)OC)C(c2ccccc2)c2ccccc2)c1)S(=O)(=O)c1ccc(N)cc1` [Example 33, N-{3-[(2S)-2-{[(4-aminophenyl)sulfonyl](ethyl-d5)amino}-3-hydroxypropyl]phenyl}-Nα-(methoxycarbonyl)-β-phenyl-L-phenylalaninamide], the IC50 stood at 50.2 nM.
